# Reference: ChEMBL document CHEMBL3991601, “The target landscape of clinical kinase drugs” (Science, 2017)
# Activity calls are given as the source filed them. Cut-off read from the data, not from the text of the source, for most assays here: actives have a measured Kd and inactives only a lower limit.
# Tests used:
# [1] = target: T1, Bone morphogenetic protein receptor type-2 (Homo sapiens, UniProt Q13873)
# T1 sequence (Q13873 whole entry): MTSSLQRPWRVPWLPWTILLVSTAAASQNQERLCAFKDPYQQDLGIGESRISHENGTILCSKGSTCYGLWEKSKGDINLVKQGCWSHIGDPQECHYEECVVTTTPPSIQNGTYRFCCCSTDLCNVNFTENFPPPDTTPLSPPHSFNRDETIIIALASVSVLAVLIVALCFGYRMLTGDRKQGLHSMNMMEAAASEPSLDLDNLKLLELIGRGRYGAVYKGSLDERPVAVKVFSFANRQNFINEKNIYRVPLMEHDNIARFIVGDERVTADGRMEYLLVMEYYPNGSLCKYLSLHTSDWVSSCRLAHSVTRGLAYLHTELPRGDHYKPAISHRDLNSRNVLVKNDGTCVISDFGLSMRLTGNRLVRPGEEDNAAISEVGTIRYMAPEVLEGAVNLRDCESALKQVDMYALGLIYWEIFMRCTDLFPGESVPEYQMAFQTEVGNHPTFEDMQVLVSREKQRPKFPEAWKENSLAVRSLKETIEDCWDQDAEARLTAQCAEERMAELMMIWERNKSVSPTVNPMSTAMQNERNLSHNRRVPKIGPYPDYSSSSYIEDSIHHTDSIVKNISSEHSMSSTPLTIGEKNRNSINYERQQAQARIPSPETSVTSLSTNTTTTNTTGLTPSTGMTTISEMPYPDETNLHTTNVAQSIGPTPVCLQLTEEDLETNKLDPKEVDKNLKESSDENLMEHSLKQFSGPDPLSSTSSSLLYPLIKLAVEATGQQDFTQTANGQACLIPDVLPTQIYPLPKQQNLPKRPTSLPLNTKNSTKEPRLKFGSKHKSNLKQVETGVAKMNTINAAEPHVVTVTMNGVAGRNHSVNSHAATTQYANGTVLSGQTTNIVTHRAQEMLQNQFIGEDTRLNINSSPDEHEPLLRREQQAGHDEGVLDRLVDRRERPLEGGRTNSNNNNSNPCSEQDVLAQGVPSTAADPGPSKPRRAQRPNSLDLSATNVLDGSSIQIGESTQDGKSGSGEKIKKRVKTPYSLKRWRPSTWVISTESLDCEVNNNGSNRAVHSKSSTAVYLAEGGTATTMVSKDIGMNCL
# [2] = target: Protein kinase C beta type (Homo sapiens, UniProt P05771)
# [3] = target: T2, Bifunctional phosphoribosylaminoimidazole carboxylase/phosphoribosylaminoimidazole succinocarboxamide synthetase (Homo sapiens, UniProt P22234)
# T2 sequence (P22234 whole entry): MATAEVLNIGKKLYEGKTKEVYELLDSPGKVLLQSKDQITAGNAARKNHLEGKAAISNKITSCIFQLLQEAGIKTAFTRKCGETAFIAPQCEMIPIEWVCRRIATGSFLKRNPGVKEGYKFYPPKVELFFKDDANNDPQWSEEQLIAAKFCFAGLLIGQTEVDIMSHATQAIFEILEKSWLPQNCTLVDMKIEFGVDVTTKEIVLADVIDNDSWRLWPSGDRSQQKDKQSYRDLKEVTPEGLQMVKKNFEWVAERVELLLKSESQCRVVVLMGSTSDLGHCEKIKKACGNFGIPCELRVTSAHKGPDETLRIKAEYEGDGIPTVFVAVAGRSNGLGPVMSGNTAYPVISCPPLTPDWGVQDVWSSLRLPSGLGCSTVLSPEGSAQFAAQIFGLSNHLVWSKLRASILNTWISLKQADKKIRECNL
# [4] = target: Serine/threonine-protein kinase/endoribonuclease IRE1 (Homo sapiens, UniProt O75460)
# [5] = target: T3, Serine/threonine-protein kinase NLK (Homo sapiens, UniProt Q9UBE8)
# T3 sequence (Q9UBE8 whole entry): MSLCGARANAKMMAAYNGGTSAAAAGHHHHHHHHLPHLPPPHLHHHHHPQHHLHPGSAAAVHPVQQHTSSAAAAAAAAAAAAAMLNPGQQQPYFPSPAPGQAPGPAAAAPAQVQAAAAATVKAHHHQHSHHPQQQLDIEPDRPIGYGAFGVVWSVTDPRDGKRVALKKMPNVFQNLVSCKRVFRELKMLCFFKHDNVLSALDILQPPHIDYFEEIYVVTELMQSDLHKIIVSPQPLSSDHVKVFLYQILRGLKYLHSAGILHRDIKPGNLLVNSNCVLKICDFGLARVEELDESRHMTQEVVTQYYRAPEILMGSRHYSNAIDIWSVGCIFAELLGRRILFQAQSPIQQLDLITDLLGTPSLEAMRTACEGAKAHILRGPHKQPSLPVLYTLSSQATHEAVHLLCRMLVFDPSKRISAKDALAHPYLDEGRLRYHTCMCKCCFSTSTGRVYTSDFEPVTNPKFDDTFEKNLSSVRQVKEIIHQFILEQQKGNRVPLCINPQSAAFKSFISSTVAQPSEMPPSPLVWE
# [6] = target: Casein kinase II subunit alpha' (Homo sapiens, UniProt P19784)
# [7] = target: Casein kinase I isoform epsilon (Homo sapiens, UniProt P49674)
# dCTP pyrophosphatase 1 = target: T4, dCTP pyrophosphatase 1 (Homo sapiens, UniProt Q9H773)
# T4 sequence (Q9H773 whole entry): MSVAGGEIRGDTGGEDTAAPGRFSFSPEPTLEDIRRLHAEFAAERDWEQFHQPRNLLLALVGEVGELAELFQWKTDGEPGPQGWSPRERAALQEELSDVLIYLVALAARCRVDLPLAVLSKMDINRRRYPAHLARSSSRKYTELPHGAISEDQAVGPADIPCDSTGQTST
# [8] = target: Dual specificity tyrosine-phosphorylation-regulated kinase 1A (Homo sapiens, UniProt Q13627)
# Note: in the data inactive means no Kd found up to 30 µM.
# Chain of Serine/threonine-protein kinase/endoribonuclease IRE1 (O75460 whole entry): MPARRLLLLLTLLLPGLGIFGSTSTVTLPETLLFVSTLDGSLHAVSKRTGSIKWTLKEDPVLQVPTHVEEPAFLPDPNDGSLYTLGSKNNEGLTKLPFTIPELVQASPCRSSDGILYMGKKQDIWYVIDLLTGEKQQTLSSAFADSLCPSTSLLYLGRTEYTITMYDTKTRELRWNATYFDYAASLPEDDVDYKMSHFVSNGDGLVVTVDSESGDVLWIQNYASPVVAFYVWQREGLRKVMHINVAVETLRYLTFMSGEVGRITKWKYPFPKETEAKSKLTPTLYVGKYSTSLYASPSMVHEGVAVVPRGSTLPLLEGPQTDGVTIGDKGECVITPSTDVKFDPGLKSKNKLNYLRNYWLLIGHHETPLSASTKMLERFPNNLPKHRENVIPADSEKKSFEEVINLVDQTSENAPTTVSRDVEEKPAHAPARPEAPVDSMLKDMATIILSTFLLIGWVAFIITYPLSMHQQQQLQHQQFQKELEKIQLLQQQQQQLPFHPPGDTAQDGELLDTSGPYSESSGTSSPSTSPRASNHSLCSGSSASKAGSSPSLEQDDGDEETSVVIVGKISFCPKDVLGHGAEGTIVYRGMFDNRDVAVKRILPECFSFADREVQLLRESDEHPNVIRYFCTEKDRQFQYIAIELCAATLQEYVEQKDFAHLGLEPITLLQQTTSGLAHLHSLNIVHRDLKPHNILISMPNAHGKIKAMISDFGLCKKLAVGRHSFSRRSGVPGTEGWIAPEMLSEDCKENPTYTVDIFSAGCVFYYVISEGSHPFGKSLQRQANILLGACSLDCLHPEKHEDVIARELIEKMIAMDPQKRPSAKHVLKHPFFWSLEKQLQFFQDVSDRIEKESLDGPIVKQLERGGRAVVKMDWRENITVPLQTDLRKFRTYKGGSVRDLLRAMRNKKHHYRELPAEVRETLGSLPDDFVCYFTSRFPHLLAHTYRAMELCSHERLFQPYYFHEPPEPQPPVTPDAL
# Chain of Casein kinase I isoform epsilon (P49674 whole entry, canonical isoform): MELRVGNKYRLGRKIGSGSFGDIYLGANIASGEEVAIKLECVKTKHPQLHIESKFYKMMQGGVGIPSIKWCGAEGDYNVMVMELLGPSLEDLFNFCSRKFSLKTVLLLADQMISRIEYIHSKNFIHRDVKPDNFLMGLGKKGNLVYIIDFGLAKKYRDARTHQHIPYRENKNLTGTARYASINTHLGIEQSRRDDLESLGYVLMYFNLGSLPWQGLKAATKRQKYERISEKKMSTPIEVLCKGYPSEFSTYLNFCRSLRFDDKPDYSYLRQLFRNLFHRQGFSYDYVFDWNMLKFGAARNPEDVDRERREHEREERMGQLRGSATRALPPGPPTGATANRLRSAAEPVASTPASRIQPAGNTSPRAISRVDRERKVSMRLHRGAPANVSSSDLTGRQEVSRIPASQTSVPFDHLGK
# Chain of Protein kinase C beta type (P05771 whole entry): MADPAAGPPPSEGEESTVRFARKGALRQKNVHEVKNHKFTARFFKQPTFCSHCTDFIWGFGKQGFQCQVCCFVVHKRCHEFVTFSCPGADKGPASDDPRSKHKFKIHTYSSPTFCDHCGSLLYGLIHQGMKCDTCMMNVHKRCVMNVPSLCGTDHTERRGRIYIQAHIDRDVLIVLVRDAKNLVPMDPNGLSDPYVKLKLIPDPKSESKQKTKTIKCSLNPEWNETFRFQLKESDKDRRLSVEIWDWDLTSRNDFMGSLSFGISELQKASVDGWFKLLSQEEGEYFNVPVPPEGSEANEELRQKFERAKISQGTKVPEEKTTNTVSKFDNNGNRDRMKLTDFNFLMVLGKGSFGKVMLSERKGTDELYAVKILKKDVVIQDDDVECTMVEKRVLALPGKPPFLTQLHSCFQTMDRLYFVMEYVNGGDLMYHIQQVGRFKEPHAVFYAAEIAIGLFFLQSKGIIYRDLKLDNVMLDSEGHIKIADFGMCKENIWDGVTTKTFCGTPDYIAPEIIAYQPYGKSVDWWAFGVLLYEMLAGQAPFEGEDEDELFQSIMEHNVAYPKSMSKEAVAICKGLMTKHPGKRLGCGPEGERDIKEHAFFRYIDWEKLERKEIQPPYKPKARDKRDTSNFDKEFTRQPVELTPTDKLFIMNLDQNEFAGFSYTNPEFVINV
# Chain of Casein kinase II subunit alpha' (P19784 whole entry, canonical isoform): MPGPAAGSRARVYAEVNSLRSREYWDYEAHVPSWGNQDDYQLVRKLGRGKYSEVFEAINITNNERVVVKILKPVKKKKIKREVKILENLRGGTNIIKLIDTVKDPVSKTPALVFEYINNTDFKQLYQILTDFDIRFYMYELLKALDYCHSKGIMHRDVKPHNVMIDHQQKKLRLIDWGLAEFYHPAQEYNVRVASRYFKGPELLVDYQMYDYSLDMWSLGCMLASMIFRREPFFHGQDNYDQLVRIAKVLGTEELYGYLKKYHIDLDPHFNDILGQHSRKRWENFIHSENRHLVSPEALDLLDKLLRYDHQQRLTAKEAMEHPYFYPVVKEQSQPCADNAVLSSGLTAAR
Kd [1],Kd [2],Kd [3],Kd [4],Kd [5],Kd [6],Kd [7],Kd (dCTP pyrophosphatase 1),Kd [8],SMILES
> 30 µM (inactive),> 30 µM (inactive),> 30 µM (inactive),> 30 µM (inactive),> 30 µM (inactive),> 30 µM (inactive),> 30 µM (inactive),> 30 µM (inactive),> 30 µM (inactive),Cc1ccc(S(=O)(=O)Nc2nc3ccccc3nc2Nc2ccc3nsnc3c2)cc1
> 30 µM (inactive),> 30 µM (inactive),> 30 µM (inactive),> 30 µM (inactive),> 30 µM (inactive),> 30 µM (inactive),> 30 µM (inactive),> 30 µM (inactive),> 30 µM (inactive),COc1cc(CCc2cc(NC(=O)c3ccc(N4C[C@@H](C)N[C@@H](C)C4)cc3)n[nH]2)cc(OC)c1 [AZD-4547]
> 30 µM (inactive),> 30 µM (inactive),> 30 µM (inactive),> 30 µM (inactive),–,0.017 µM (active),> 30 µM (inactive),> 30 µM (inactive),0.314 µM (active),O=C1NC(=O)/C(=C/c2ccc3nccc(-c4ccncc4)c3c2)S1 [GSK-1059615]
> 30 µM (inactive),> 30 µM (inactive),> 30 µM (inactive),> 30 µM (inactive),> 30 µM (inactive),> 30 µM (inactive),> 30 µM (inactive),> 30 µM (inactive),> 30 µM (inactive),Cc1c(F)cc(C(=O)NC2CC2)cc1-c1ccc(C(=O)NCC(C)(C)C)cn1 [LOSMAPIMOD]
> 30 µM (inactive),> 30 µM (inactive),> 30 µM (inactive),> 30 µM (inactive),> 30 µM (inactive),> 30 µM (inactive),> 30 µM (inactive),> 30 µM (inactive),> 30 µM (inactive),Cn1cc(-c2ccc(F)c(C(F)(F)F)c2)nc1C1CCN(c2ncnc3[nH]ncc23)CC1 [LY-2584702]
> 30 µM (inactive),7.24 µM (active),> 30 µM (inactive),> 30 µM (inactive),> 30 µM (inactive),0.394 µM (active),> 30 µM (inactive),> 30 µM (inactive),> 30 µM (inactive),C1=C/COCc2cc(ccc2OCCN2CCCC2)Nc2nccc(n2)-c2cccc(c2)COC/1 [PACRITINIB]
> 30 µM (inactive),> 30 µM (inactive),> 30 µM (inactive),> 30 µM (inactive),> 30 µM (inactive),> 30 µM (inactive),> 30 µM (inactive),> 30 µM (inactive),> 30 µM (inactive),COc1cc(OC)c(/C=C/S(=O)(=O)Cc2ccc(OC)c(NCC(=O)O)c2)c(OC)c1 [RIGOSERTIB]
–,> 30 µM (inactive),> 30 µM (inactive),–,–,> 30 µM (inactive),–,> 30 µM (inactive),–,Nc1nc(N)c2nc(-c3cccc(O)c3)c(-c3cccc(O)c3)nc2n1 [TG100-115]
> 30 µM (inactive),> 30 µM (inactive),> 30 µM (inactive),> 30 µM (inactive),> 30 µM (inactive),> 30 µM (inactive),> 30 µM (inactive),> 30 µM (inactive),> 30 µM (inactive),CC(C)Nc1cc(-c2c[nH]c(C(=O)N[C@H](CO)c3cccc(Cl)c3)c2)c(Cl)cn1 [ULIXERTINIB]

SMILES,Kd [1],Kd [2],Kd [3],Kd [4],Kd [5],Kd [6],Kd [7],Kd (dCTP pyrophosphatase 1),Kd [8]
Cc1cn(-c2cc(NC(=O)c3ccc(C)c(Nc4nccc(-c5cccnc5)n4)c3)cc(C(F)(F)F)c2)cn1 [NILOTINIB],–,> 30 µM (inactive),> 30 µM (inactive),–,–,–,–,> 30 µM (inactive),–
C=CC(=O)N1CCC(Oc2cc3c(Nc4ccc(Cl)c(Cl)c4F)ncnc3cc2OC)CC1 [POZIOTINIB],> 30 µM (inactive),> 30 µM (inactive),> 30 µM (inactive),> 30 µM (inactive),> 30 µM (inactive),–,> 30 µM (inactive),> 30 µM (inactive),> 30 µM (inactive)
